Assay results: patent US20030114467A1, “Novel pyrazolo- and pyrrolo-pyrimidines and uses thereof” (priority 2001, published 2003)

Assay: Hydroxyapatite assay (hydroxyapatite adsorption chromatography, bone-targeting potential)
Type: physicochemical
Conditions: corrected retention K=(retention time-void time)/void; TSK-Gel HA 1000 HPLC column; linear gradient 10 mM to 500 mM sodium phosphate, 0.15 N NaCl, pH 6.8
Description: Hydroxyapatite is the principal mineral component of bone. Hydroxyapatite adsorption chromatography is used as an assay to evaluate the bone-targeting potential of both individual bone-targeting moieties (“monomers”) and of pharmaceuticals incorporating bone-targeting groups.
Method: The rentention time of a test compound is measured using a linear gradient from 10 mM sodium phosphate, 0.15 N NaCl, pH=6.8 to 500 mM sodium phosphate, 0.15 N NaCl, […] on a TSK-Gel HA 1000 high pressure liquid chromatography column (7.5 mm×75 mm). The rentention time of the compound is expressed in terms of K=(retention time-void time)/void. This K value is corrected using two reference compounds to correct from inter-column and inter-system variation to obtain a K′ value.
Reference Compounds: K′ values were determined for known bone targeted compounds, the bisphosphonate, alendronate and tetracycline.

K′ value: 3.7
SMILES: NCCCC(O)(P(=O)(O)O)P(=O)(O)O [Alendronate, alendronate]
